Patent US20200030278A1, “PHARMACEUTICAL COMPOSITIONS OF METAP-2 INHIBITORS” (Zafgen, Inc., priority 2017, published 2020)
Where two headings read alike, the source gives them in different places.

Legend:
[1] = logD7.4 (physicochemical properties); settings: pH 7.4
[2] = pKa (physicochemical properties)
Solubility (pH 7) = type: physicochemical; settings: pH 7, aqueous buffer
[3] = Pharmacokinetics after intravenous administration in rats; settings: in vivo, Rat, IV Bolus, 1 mg/kg
Procedure: (§1) Animal experiments were performed in accordance with the Guide for the Care and Use of Laboratory Animals as adopted and promulgated by the U.S. National Institutes of Health or local equivalent and were approved by the Institution's Animal Care and Use Committee or local equivalent. Unless described otherwise, animals (mouse, rat, and dog studies) were maintained under standard conditions (12-hour light/dark cycle and approximately 21±4° C. and 55±15% relative humidity), and food (Rodent pellet chow [Research Diets, Brunswick N.J., or similar] or canine pellet [Certified Dog Diet 2021C, Harlan Teklad Diets, Madison, Wis.] or canned [i.e., Cesar® Mars Petcare, Victoria, Australia]) and water were available ad libitum. Unless described otherwise, drug formulations were administered s.c. daily (efficacy studies) or every 3 days (Q3D; safety studies).

[4] = Pharmacokinetics after intravenous administration in dogs; settings: in vivo, Dog, IV Bolus, 1 mg/kg
Procedure: as §1

[5] = Pharmacokinetics after subcutaneous administration in humans; type: in vivo, Human
Text: (§2) Assessment of differences in pharmacokinetics following subcutaneous administration reflect both differences in the pharmacokinetic properties of the compounds and differences in pharmaceutical factors that affect absorption of the formulations from the injection sites.

[6] = Pharmacokinetics after subcutaneous administration in rats; type: in vivo; settings: plasma; Rat, SC, 6 mg/kg
Procedure: as §1, §2

[7] = Pharmacokinetics after subcutaneous administration in dogs; type: in vivo; settings: plasma; Dog, SC, 1 mg/kg
Procedure: as §1, §2

[8] = Pharmacokinetics after subcutaneous administration in rabbits; type: in vivo, Rabbit
Text: as §2

[9] = Protein binding in rat plasma (dialysis); type: in vitro ADME; settings: Rat Plasma, read-out: % Bound (converted)
plasma proteins [10] = experiment: Protein binding in rat plasma (dialysis); type: in vitro ADME; settings: plasma; rat, summary over concentrations; read-out: bound to plasma proteins
[11] = Protein binding in dog plasma (dialysis); type: in vitro ADME; settings: Dog Plasma, read-out: % Bound (converted)
[12] = Protein binding in mouse plasma (dialysis); type: in vitro ADME; settings: read-out: % Bound (converted)
[13] = Protein binding in human plasma (dialysis); type: in vitro ADME; settings: Human Plasma, read-out: % Bound (converted)
plasma proteins [14] = experiment: Protein binding in human plasma (dialysis); type: in vitro ADME; settings: plasma; human, summary over concentrations; read-out: bound to plasma proteins
[15] = Red blood cell partitioning; type: in vitro ADME; settings: Compound A compared with beloranib
[16] = Duration of plasma exposure after subcutaneous dosing, summary over species; type: in vivo, rat, dog, rabbit, human
[17] = Toxicology study in the rat, s.c. Q3D for 28 days; type: in vivo, Sprague Dawley rats; settings: for NOAEL at 28 days / AUC(0-t) / Cmax: Sprague Dawley; for AUC(0-t) / Cmax: 6 mg/kg, NOAEL 6 mg/kg; for AUC(0-t): read-out: AUC0-t at NOAEL
Procedure: Male and female Sprague Dawley rats 9-10 weeks of age (Envigo RMS, Inc., Indianapolis, Ind. or Orient Bio Inc., Gyeonggi-do, South Korea) were individually housed at the testing facility. […] Animals were allocated to treatment groups based on body weight, and body weight and food consumption were recorded weekly. […] At necropsy, macroscopic pathologic findings were recorded, sperm motility and morphology were determined, selected organs were weighed, and selected tissues were collected for microscopic examination.

[18] = Hepatocyte incubation, metabolic profile, rat; type: in vitro ADME
[19] = Hepatocyte incubation, metabolic profile, dog; type: in vitro ADME
[20] = Hepatocyte incubation, metabolic profile, human; type: in vitro ADME
[21] = dog, in vivo, sc
Procedure: (§3) Male and female beagle dogs of 9 to 11 months of age for PK characterization were individually housed at the testing facility Approximately 325 g of pelleted food was provided daily. […] Animals were observed twice daily for signs of ill health, morbidity, mortality, injury, and viability, and detailed clinical observations were conducted daily (including urine/fecal examination and hands-on examination). Food was weighed daily, and body weights were recorded at least weekly.
(§4) Samples were collected in tubes containing lithium heparin and processed for plasma by centrifugation (10 minutes at 3000 rpm). Supernatant was removed and stored frozen (−70° C.) until processed (BASi, West Lafayette, Ind.). Plasma drug concentration data were used to calculate PK parameters for individual concentration data using noncompartmental PK methods in Watson™ version 7.3.0.01 (Thermo Fisher Scientific, Inc., Waltham, Mass.).

[22] = Pharmacokinetic study in dogs, single s.c. injection (Example 3); settings: both, beagle, dog, plasma, sc, 0.6 mg/kg
Procedure: as §3, §4

[23] = female, rat, in vivo, sc, Day 1, female rats
[24] = female, rat, in vivo, sc, Day 28, female rats
[25] = male, rat, in vivo, sc, Day 28, male rats

## CO[C@@H]1[C@H](OC(=O)N2CC(CCN3CCOCC3)C2)CC[C@]2(CO2)[C@H]1[C@@]1(C)O[C@@H]1CC=C(C)C [Compound A]
[1]
  logD7.4: 2.28
[2]
  pKa: 7.17
Solubility (pH 7)
  solubility: > 100 mg/mL
[3]; kel and dependent parameters estimated using two time points
  clearance: 252 mL/min/kg
[3]; kel and dependent parameters estimated using two time points (1 and 2 hours)
  half-life: 93 ± 62.4 min
[3]; kel and dependent parameters estimated using two time points, read-out: Vdss
  Vd: 2.11 ± 0.1 L/kg
[4]
  clearance: 45.3 mL/min/kg
  half-life: 39.7 ± 6.06 min
[4]; read-out: Vdss
  Vd: 1.48 ± 0.17 L/kg
[5]; Human, SC, 2.4 mg
  Cmax: 13.5 ± 2.7 ng/mL
  Tmax: 15 ± 0 min
  kel: 1.09 ± 0.34 h⁻¹
[5]; Human, SC, 2.4 mg, estimated from subcutaneous dosing
  Vdss: 3.78 ± 1.54 L/kg
[5]; humans, 2.4 mg subcutaneous dose
  plasma concentration at 8 hours after dosing: not quantifiable
[5]; plasma, Human, SC, 2.4 mg
  AUC(0-inf): 8.05 ± 1.42 ng·h/mL
  half-life: 40.9 ± 11.9 min
[6]
  AUC(0-t): 391 ± 54 ng·h/mL
  Cmax: 323 ± 26 ng/mL
  Tmax: 17.5 ± 5.04 min
[7]
  AUC(0-t): 348 ± 42 ng·h/mL
  Cmax: 122 ± 29 ng/mL
  Tmax: 55 ± 10 min
  half-life: 62.4 ± 18 min
[8]; plasma, Rabbit, SC, 1 mg/kg
  AUC(0-t): 207 ± 45 ng·h/mL
  Cmax: 173 ± 34 ng/mL
  Tmax: 19.8 ± 8.4 min
  half-life: 36.9 ± 10.1 min
[8]; rabbit, subcutaneous, last sampling time 8 hours
  time after dosing at which plasma concentrations were below the lower limit of quantification: ≤ 4 h
[9]; intended 5 nM, actual 3.64 nM at end of 4-hour dialysis
  fraction unbound at 4 h, 5 nM: 0.323
[9]; intended 10 nM, actual 7.60 nM
  fraction unbound at 4 h, 10 nM: 0.29
[9]; intended 50 nM, actual 39.7 nM
  fraction unbound at 4 h, 50 nM: 0.426
[9]; intended 100 nM, actual 76.0 nM
  fraction unbound at 4 h, 100 nM: 0.466
[9]; intended 500 nM, actual 370 nM
  fraction unbound at 4 h, 500 nM: 0.451
[9]; intended 1000 nM, actual 595 nM
  fraction unbound at 4 h, 1000 nM: 0.566
Plasma proteins [10]
  fraction unbound at 4 h: 0.3 to 0.6
[11]; intended 5 nM, actual 3.17 nM at end of 4-hour dialysis
  fraction unbound at 4 h, 5 nM: 0.311
[11]; intended 10 nM, actual 6.05 nM
  fraction unbound at 4 h, 10 nM: 0.406
[11]; intended 50 nM, actual 32.0 nM
  fraction unbound at 4 h, 50 nM: 0.326
[11]; intended 100 nM, actual 59.1 nM
  fraction unbound at 4 h, 100 nM: 0.403
[11]; intended 500 nM, actual 320 nM
  fraction unbound at 4 h, 500 nM: 0.457
[11]; intended 1000 nM, actual 527 nM
  fraction unbound at 4 h, 1000 nM: 0.469
[12]; intended 5 nM, actual 5.20 nM at end of 4-hour dialysis
  fraction unbound at 4 h, 5 nM: 0.298
[12]; intended 10 nM, actual 11.1 nM
  fraction unbound at 4 h, 10 nM: 0.293
[12]; intended 50 nM, actual 56.4 nM
  fraction unbound at 4 h, 50 nM: 0.302
[12]; intended 100 nM, actual 112 nM
  fraction unbound at 4 h, 100 nM: 0.333
[12]; intended 500 nM, actual 496 nM
  fraction unbound at 4 h, 500 nM: 0.377
[12]; intended 1000 nM, actual 868 nM
  fraction unbound at 4 h, 1000 nM: 0.46
[13]; intended 5 nM, actual 1.49 nM at end of 4-hour dialysis
  fraction unbound at 4 h, 5 nM: 0.664
[13]; intended 10 nM, actual 3.14 nM
  fraction unbound at 4 h, 10 nM: 0.681
[13]; intended 50 nM, actual 15.5 nM
  fraction unbound at 4 h, 50 nM: 0.688
[13]; intended 100 nM, actual 32.7 nM
  fraction unbound at 4 h, 100 nM: 0.694
[13]; intended 500 nM, actual 165 nM
  fraction unbound at 4 h, 500 nM: 0.704
[13]; intended 1000 nM, actual 338 nM
  fraction unbound at 4 h, 1000 nM: 0.748
Plasma proteins [14]
  fraction unbound: 0.65 to 0.75
[15]
  red blood cell partitioning: similar
[16]; all species
  time for concentrations in plasma to return to baseline: ≤ 8 h
[16]; dosing once every 3 days in animals and twice a week in humans
  interval between doses with plasma concentrations at background / minimal exposure: approximately 54 hours
[17]; rat, in vivo, sc, female rats, s.c. Q3D, 4 weeks, read-out: NOAEL (F)
  NOAEL at 28 days: 6 mg/kg
[17]; rat, in vivo, sc, male rats, s.c. Q3D, 4 weeks, read-out: NOAEL
  NOAEL at 28 days: 6 mg/kg
[17]; both sexes, rat, in vivo, sc, Day 1, male rats
  AUC(0-t): 349 ng·h/mL
[17]; [23]
  Cmax: 278 ng/mL
  AUC(0-t): 262 ng·h/mL
[17]; [24]
  Cmax: 412 ng/mL
  AUC(0-t): 288 ng·h/mL
[17]; male, rat, in vivo, sc, Day 1, male rats
  Cmax: 351 ng/mL
[17]; [25]
  Cmax: 426 ng/mL
  AUC(0-t): 409 ng·h/mL
[17]; rat, in vivo, sc, 25 mg/kg
  tolerability of the highest dose: well tolerated
[17]; rats, s.c. Q3D, 4 weeks
  Mortality/early euthanasia: no mortality and None
[18]
  metabolic profile / predominant pathway in hepatocytes: higher amount of GSH-metabolism than for dog and human hepatocytes
[19]
  metabolic profile / predominant pathway in hepatocytes: oxidative (CYP-mediated) metabolism being predominant
[20]
  metabolic profile / predominant pathway in hepatocytes: oxidative (CYP-mediated) metabolism being predominant
[21]
  plasma concentration after the 4-hour timepoint: undetectable
[22]
  half-life: 24 min
